Like-named read-outs stand apart in the source and are kept apart here.
Target: T1, adenine binding rat receptor (Rattus norvegicus, UniProt Q7TN49)
T1 construct: expressed in transfected cells; host or cells: CHO cells, transient, lipofectamine PLUS
T1 sequence (Q7TN49 1-304): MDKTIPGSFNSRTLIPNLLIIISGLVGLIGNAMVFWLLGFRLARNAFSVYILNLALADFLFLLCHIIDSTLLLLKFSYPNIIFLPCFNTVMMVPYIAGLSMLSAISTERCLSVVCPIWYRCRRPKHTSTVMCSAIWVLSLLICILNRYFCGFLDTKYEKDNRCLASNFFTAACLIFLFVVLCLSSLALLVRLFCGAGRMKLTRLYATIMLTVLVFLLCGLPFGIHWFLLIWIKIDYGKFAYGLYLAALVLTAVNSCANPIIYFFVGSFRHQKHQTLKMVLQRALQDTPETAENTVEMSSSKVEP
Assay: [35S]GTPγS binding on CHO membranes permanently transfected
Assay type: biochemical
Settings: for % stimulation: above basal
Experimental: The lipofectamine PLUS method was also used for permanent transfection of CHO cells with slight modifications. One day after the transfection, the medium was replaced with selection medium which was replaced every 2 to 3 days. The cells were grown till colonies appeared (between day 8 and 10) and split to a 175 cm^2 culture flask for further culture and experiments. Monoclonal cell lines were prepared by limited dilution seeding in 96 well plates.
a) Methods—Determination of [^35S ]GTPγS binding to the G-proteins was carried out according to a modified procedure of Lazareno (Methods Mol. Biol., 83:107-116, 1997). These experiments were performed for a first functional evaluation of the receptor on the level of a membrane preparation.
The assay mixture contained 10 and 35 μg of membrane protein for the transfected and wild type CHO cells, respectively.
For testing agonistic activity, 175 μl of diluted membranes was pre-incubated in the buffer described above together with 25 μl of buffer and 25 μl of varying concentrations of the compound in a total volume of 225 μl. After a 20 minute pre-incubation period at 30° C., 25 μl of [^35S]GTPγS was added to a final concentration of 0.25 nM and the assay mixtures were further incubated for 20 minutes at 30° C. Bound and free [^35S]GTPγS were separated by rapid filtration over an UniFilter™-96, GF/B™ under reduced pressure using Filtermate 196 filtration (Packard Company (Netherlands). The amount of bound radioactivity on the filter unit was determined after drying of the filters and scintillant addition (Microscint-O; Packard Company) by liquid scintillation counting.
Basal [^35S]GTPγS binding was measured in absence of compounds. Stimulation by agonist was calculated as the percentage increase above basal levels. The sigmoid agonist concentration-response curves were analyzed by non-linear regression using the GraphPad Prism program. The different concentration points were run in duplicates and the reported data were retrieved from independent experiments.
The first functional characterization of the monoclonal cell lines was performed in [^35S]GTPγS binding experiments. The maximum stimulation of [^35S] GTPγS binding by adenine for each of the 4 selected clones was much higher ([…]) than the that found in the transient transfections confirming the expected better coupling in permanent cell lines (see table 5).

- EC50 (4 selected clones, read-out: mean EC50): 62 nM
- EC50 (Clone 26 (MP1), read-out: pEC50 (converted)): 64.6 nM
- EC50 (Clone 28 (MP9), read-out: pEC50 (converted)): 49 nM
- EC50 (Clone 29 (MP9), read-out: pEC50 (converted)): 79.4 nM
- EC50 (Clone 30 (MP9), read-out: pEC50 (converted)): 57.5 nM
- % stimulation (Clone 26 (MP1)): 632%
- % stimulation (Clone 28 (MP9)): 657%
- % stimulation (Clone 29 (MP9)): 527%
- % stimulation (Clone 30 (MP9)): 534%
Structure (SMILES): Nc1ncnc2nc[nH]c12 [Adenine, adenine]

From patent publication US20030157516A1, “G protein coupled receptor” (priority 2000, published 2003)
